Experimental data as given in patent publication US20080161288A1, “COMPOUNDS” (Pfizer Inc., priority 2006, published 2008).

Assays:
[1] = molecular target: T1, bovine beta-2 adrenoceptor (Bos taurus, UniProt Q28044); test: cAMP assay in CHO cells transfected with the bovine beta-2 adrenoceptor; assay type: cell-based; conditions: cAMP (DiscoveRx Hit Hunter cAMP II) in CHO cells transfected with bovine beta-2 adrenoceptor, 30 minutes with compound, 0.5 mM IBMX
T1 construct: expressed in transfected cells; host or cells: CHO cells
Method: (§1) CHO cells transfected with the bovine or porcine beta-2 adrenceptors were maintained in culture in DMEM/HAMS F12+10% FBS+2 mM glutamine+500 μg/ml geneticin (for the porcine receptor the medium was supplement with 1.5 mM HEPES) at 37° C. with a 5% CO2 atmosphere.
(§2) Cells were plated into 96 well viewplates in medium and incubated overnight at 37° C. with a 5% CO2 atmosphere. The cells were pre-incubated with 0.5 mM IBMX in PBS for 30 minutes prior to incubation with increasing concentrations of experimental compound (5×10^−12 to 10^−5 M) for 30 minutes at 37° C. with a 5% CO2 atmosphere. At the end of the incubation time the compound was removed and the cells assayed for cAMP using the DiscoveRx Hit Hunter cAMP II™ assay kit.
(§3) Duplicate samples were run for each experimental compound and the data generated was analysed using EC50 analysis software in Graphpad Prism.

[2] = molecular target: T2, porcine beta-2 adrenoceptor (Sus scrofa, UniProt Q28997); test: cAMP assay in CHO cells transfected with the porcine beta-2 adrenoceptor; assay type: cell-based; conditions: cAMP (DiscoveRx Hit Hunter cAMP II) in CHO cells transfected with porcine beta-2 adrenoceptor, 30 minutes with compound, 0.5 mM IBMX
T2 construct: expressed in transfected cells; host or cells: CHO cells
Method: as §1, §2, §3

T1 sequence (Q28044 whole entry): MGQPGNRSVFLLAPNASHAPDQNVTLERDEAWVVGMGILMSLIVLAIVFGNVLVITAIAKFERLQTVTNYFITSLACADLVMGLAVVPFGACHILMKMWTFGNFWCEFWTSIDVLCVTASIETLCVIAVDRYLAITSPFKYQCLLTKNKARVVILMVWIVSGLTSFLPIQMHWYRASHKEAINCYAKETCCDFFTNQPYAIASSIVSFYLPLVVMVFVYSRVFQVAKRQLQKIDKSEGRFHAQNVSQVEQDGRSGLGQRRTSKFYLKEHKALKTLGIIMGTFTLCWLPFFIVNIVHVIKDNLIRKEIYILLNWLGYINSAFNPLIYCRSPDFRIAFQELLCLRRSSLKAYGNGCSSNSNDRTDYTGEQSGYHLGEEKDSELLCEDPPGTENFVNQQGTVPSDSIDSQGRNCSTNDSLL
T2 sequence (Q28997 whole entry): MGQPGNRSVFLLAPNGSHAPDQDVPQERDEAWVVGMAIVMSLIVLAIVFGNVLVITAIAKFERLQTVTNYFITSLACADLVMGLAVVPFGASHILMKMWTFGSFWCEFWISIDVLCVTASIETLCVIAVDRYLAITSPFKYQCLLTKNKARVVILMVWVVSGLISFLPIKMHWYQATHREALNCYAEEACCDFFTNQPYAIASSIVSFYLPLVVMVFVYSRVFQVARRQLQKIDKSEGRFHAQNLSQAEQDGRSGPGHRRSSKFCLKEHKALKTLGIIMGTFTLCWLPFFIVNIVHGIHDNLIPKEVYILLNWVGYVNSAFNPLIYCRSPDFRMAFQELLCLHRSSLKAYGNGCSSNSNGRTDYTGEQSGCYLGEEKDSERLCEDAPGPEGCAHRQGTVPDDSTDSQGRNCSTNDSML

Row | EC50 [1] | EC50 [2] | SMILES
1 | 179 nM | 34.3 nM | CC(CCc1ccccc1)N[C@@H]1CCn2c(=O)[nH]c3cccc(c32)[C@H]1O (single isomer, unassigned) [Example 9b, 7-Hydroxy-6-[(1-methyl-3-phenylpropyl)amino]-4,5,6,7-tetrahydroimidazo[4,5,1-jk][1]benzazepin-2(1H)-one]
2 | 5.9 nM | 2.3 nM | CC(CCc1ccccc1)N[C@@H]1CCn2c(=O)[nH]c3cccc(c32)[C@H]1O (single isomer, unassigned) [Example 9d, 7-Hydroxy-6-[(1-methyl-3-phenylpropyl)amino]-4,5,6,7-tetrahydroimidazo[4,5,1-jk][1]benzazepin-2(1H)-one]
3 | 7 nM | 2.3 nM | CC(CCc1ccccc1)N[C@@H]1CCn2c(=O)[nH]c3cccc(c32)[C@H]1O (single isomer, unassigned) [Example 9e, 7-Hydroxy-6-[(1-methyl-3-phenylpropyl)amino]-4,5,6,7-tetrahydroimidazo[4,5,1-jk][1]benzazepin-2(1H)-one]
4 | 428 nM | 385 nM | CC(CC(C)(C)c1ccccc1)N[C@@H]1CCn2c(=O)[nH]c3cccc(c32)[C@H]1O (single isomer, unassigned) [Example 14a, 6-[(1,3-Dimethyl-3-phenylbutyl)amino]-7-hydroxy-4,5,6,7-tetrahydroimidazo[4,5,1-jk][1]benzazepin-2(1H)-one]
5 | 3.4 nM | 4.2 nM | CC(CC(C)(C)c1ccccc1)N[C@@H]1CCn2c(=O)[nH]c3cccc(c32)[C@H]1O (single isomer, unassigned) [Example 14b, 6-[(1,3-Dimethyl-3-phenylbutyl)amino]-7-hydroxy-4,5,6,7-tetrahydroimidazo[4,5,1-jk][1]benzazepin-2(1H)-one]
6 | 0.6 nM | 0.9 nM | CC(CCc1cc(Cl)ccc1O)N[C@@H]1CCn2c(=O)[nH]c3cccc(c32)[C@H]1O (single isomer, unassigned) [Example 19a, 6-{[3(5-Chloro-2-hydroxyphenyl)-1-methylpropyl]amino}-7-hydroxy-4,5,6,7-tetrahydroimidazo[4,5,1-jk][1]benzazepin-2(1H)-one]
7 | 123 nM | 101 nM | CC(CCc1cc(Cl)ccc1O)N[C@@H]1CCn2c(=O)[nH]c3cccc(c32)[C@H]1O (single isomer, unassigned) [Example 19b, 6-{[3-(5-Chloro-2-hydroxyphenyl)-1-methylpropyl]amino}-7-hydroxy-4,5,6,7-tetrahydroimidazo[4,5,1-jk][1]benzazepin-2(1H)-one]
8 | 1.5 nM | 1.8 nM | CC(CCc1cccc(F)c1O)N[C@@H]1CCn2c(=O)[nH]c3cccc(c32)[C@H]1O (single isomer, unassigned) [Example 28a]

The next lines start with the compound.

Row | SMILES | EC50 [1] | EC50 [2]
9 | CC(CCc1cccc(O)c1)N[C@@H]1CCn2c(=O)[nH]c3cccc(c32)[C@H]1O (mixture of isomers) [Example 43, 7-Hydroxy-6-{[3-(3-hydroxyphenyl)-1-methylpropyl]amino}-4,5,6,7-tetrahydroimidazo[4,5,1-jk][1]benzazepin-2(1H)-one] | 7.2 nM | 5.6 nM
10 | CC(CCc1cccc(CO)c1)N[C@@H]1CCn2c(=O)[nH]c3cccc(c32)[C@H]1O (mixture of isomers) [Example 44, 7-Hydroxy-6-({3-[3-(hydroxymethyl)phenyl]-1-methylpropyl}amino)-4,5,6,7-tetrahydroimidazo[4,5,1-jk][1]benzazepin-2(1H)-one] | 75.7 nM | 61.7 nM
11 | CC(CCc1cc(Br)cc(Br)c1O)N[C@@H]1CCn2c(=O)[nH]c3cccc(c32)[C@H]1O (mixture of isomers) [Example 47, 6-{[3-(3,5-Dibromo-2-hydroxyphenyl)-1-methylpropyl]amino}-7-hydroxy-4,5,6,7-tetrahydroimidazo[4,5,1-jk][1]benzazepin-2(1H)-one] | > 200 nM | > 300 nM
12 | CC(CCc1ccc(O)cc1)N[C@@H]1CCn2c(=O)[nH]c3cccc(c32)[C@H]1O (single isomer, unassigned) [Example 2a, 7-Hydroxy-6-{[3-(4-hydroxyphenyl)-1-methylpropyl]amino}-4,5,6,7-tetrahydroimidazo[4,5,1-jk][1]benzazepin-2(1H)-on] | 13.4 nM | 6.1 nM
13 | CC(CCc1ccc(O)cc1)N[C@@H]1CCn2c(=O)[nH]c3cccc(c32)[C@H]1O (single isomer, unassigned) [Example 2b, 7-Hydroxy-6-{[3-(4-hydroxyphenyl)-1-methylpropyl]amino}-4,5,6,7-tetrahydroimidazo[4,5,1-jk][1]benzazepin-2(1H)-on] | 298 nM | 121 nM
14 | CC(CCc1ccc(O)cc1)N[C@@H]1CCn2c(=O)[nH]c3cccc(c32)[C@H]1O (single isomer, unassigned) [Example 2c, 7-Hydroxy-6-{[3-(4-hydroxyphenyl)-1-methylpropyl]amino}-4,5,6,7-tetrahydroimidazo[4,5,1-jk][1]benzazepin-2(1H)-on] | 13.1 nM | 2.9 nM
15 | CC(CCc1ccc(O)cc1)N[C@@H]1CCn2c(=O)[nH]c3cccc(c32)[C@H]1O (single isomer, unassigned) [Example 2d, 7-Hydroxy-6-{[3-(4-hydroxyphenyl)-1-methylpropyl]amino}-4,5,6,7-tetrahydroimidazo[4,5,1-jk][1]benzazepin-2(1H)-on] | 3.6 nM | 1.9 nM
16 | CC(CCc1ccc2c(c1)CCO2)N[C@@H]1CCn2c(=O)[nH]c3cccc(c32)[C@H]1O (single isomer, unassigned) [Example 3a, 6-{[3-(2,3-Dihydro-1-benzofuran-5-yl)-1-methylpropyl]amino}-7-hydroxy-4,5,6,7-tetrahydroimidazo[4,5,1-jk][1]benzazepin-2(1H)-one] | 34.3 nM | 8.1 nM
17 | CC(CCc1ccc2c(c1)CCO2)N[C@@H]1CCn2c(=O)[nH]c3cccc(c32)[C@H]1O (single isomer, unassigned) [Example 3b, 6-{[3-(2,3-Dihydro-1-benzofuran-5-yl)-1-methylpropyl]amino}-7-hydroxy-4,5,6,7-tetrahydroimidazo[4,5,1-jk][1]benzazepin-2(1H)-one] | 456 nM | 108 nM
18 | CC(CCc1ccc2c(c1)CCO2)N[C@@H]1CCn2c(=O)[nH]c3cccc(c32)[C@H]1O (single isomer, unassigned) [Example 3c, 6-{[3-(2,3-Dihydro-1-benzofuran-5-yl)-1-methylpropyl]amino}-7-hydroxy-4,5,6,7-tetrahydroimidazo[4,5,1-jk][1]benzazepin-2(1H)-one] | 27.1 nM | 5.6 nM
19 | CC(CCc1cccc(Cl)c1O)N[C@@H]1CCn2c(=O)[nH]c3cccc(c32)[C@H]1O (single isomer, unassigned) [Example 5a, 6-{[3-(3-Chloro-2-hydroxyphenyl)-1-methylpropyl]amino}-7-hydroxy-4,5,6,7-tetrahydroimidazo[4,5,1-jk][1]benzazepin-2(1H)-one] | 307 nM | 473 nM
20 | CC(CCc1cccc(Cl)c1O)N[C@@H]1CCn2c(=O)[nH]c3cccc(c32)[C@H]1O (single isomer, unassigned) [Example 5b, 6-{[3-(3-Chloro-2-hydroxyphenyl)-1-methylpropyl]amino}-7-hydroxy-4,5,6,7-tetrahydroimidazo[4,5,1-jk][1]benzazepin-2(1H)-one] | 1.6 nM | 2.9 nM
21 | C[C@H](CCc1cccc(Cl)c1O)N[C@@H]1CCn2c(=O)[nH]c3cccc(c32)[C@H]1O (single isomer, unassigned) [Example 5c] | 2.7 nM | 6 nM
22 | CC(CCc1ccccc1O)N[C@@H]1CCn2c(=O)[nH]c3cccc(c32)[C@H]1O (single isomer, unassigned) [Example 6d, 7-Hydroxy-6-{[3-(2-hydroxyphenyl)-1-methylpropyl]amino}-4,5,6,7-tetrahydroimidazo[4,5,1-jk][1]benzazepin-2(1H)-one] | 315 nM | 410 nM
23 | CC(CCc1cc(F)ccc1O)N[C@@H]1CCn2c(=O)[nH]c3cccc(c32)[C@H]1O (single isomer, unassigned) [Example 7a, 6-{[3-(5-Fluoro-2-hydroxyphenyl)-1-methylpropyl]amino}-7-hydroxy-4,5,6,7-tetrahydroimidazo[4,5,1-jk][1]benzazepin-2(1H)-one] | 77.7 nM | 104 nM
24 | CC(CCc1cc(F)ccc1O)N[C@@H]1CCn2c(=O)[nH]c3cccc(c32)[C@H]1O (single isomer, unassigned) [Example 7b, 6-{[3-(5-Fluoro-2-hydroxyphenyl)-1-methylpropyl]amino}-7-hydroxy-4,5,6,7-tetrahydroimidazo[4,5,1-jk][1]benzazepin-2(1H)-one] | 0.3 nM | 0.5 nM
25 | COc1cccc(CCC(C)N[C@@H]2CCn3c(=O)[nH]c4cccc(c43)[C@H]2O)c1O (single isomer, unassigned) [Example 8a, 7-hydroxy-6-{[3-(2-hydroxy-3-methoxyphenyl)-1-methylpropyl]amino}-4,5,6,7-tetrahydroimidazo[4,5,1-jk][1]benzazepin-2(1H)-one] | 200 nM | 172 nM
26 | COc1cccc(CCC(C)N[C@@H]2CCn3c(=O)[nH]c4cccc(c43)[C@H]2O)c1O (single isomer, unassigned) [Example 8b, 7-hydroxy-6-{[3-(2-hydroxy-3-methoxyphenyl)-1-methylpropyl]amino}-4,5,6,7-tetrahydroimidazo[4,5,1-jk][1]benzazepin-2(1H)-one] | 0.7 nM | 1.1 nM
